According to publication PMC12702928, “Improved exposure of curcumin-loaded nanocapsules: drug quantification in LPS-induced Drosophila melanogaster and pharmacokinetics in Wistar rats” (Frontiers in Pharmacology, 2025):
“And” between values parts separate entries of the source, which are not always exact repeats. Equal entries are not always repeated. Where two headings read alike, the source gives them in different places.

Tests used:
[1] = In vitro release (dialysis bag method) and release kinetics modelling; assay type: physicochemical
Description: The release medium was phosphate-buffered saline, prepared according to pharmacopeial standards and consisting of 0.02% KCl (w/v), 0.02% KH2PO4 (w/v), 0.116% Na2HPO4 (w/v), and 0.8% NaCl (w/v) (adjusted with 10 mM NaOH, pH 7.4) ([Anvisa, 2019]).
The dialysis bags containing CUR-loaded NCs were immersed in the phosphate-buffered saline medium at 37 °C with horizontal shaking at 50 rpm.
At predetermined intervals, 2 mL of the medium was withdrawn for analysis with a UV spectrophotometer (UV-1800, Shimadzu, Japan) at 427 nm. The experiments were conducted in triplicate (n = 3), with results reported as the percentage of drug released over time.
Evaluated models included zero-order (Equation 1), monoexponential (Equation 2), bi-exponential (Equation 3), Weibull (Equation 4), and Higuchi (Equation 5). F=k0·t (1) F=100 ·1−e^−k1·t (2) F=100·1−Ae^−αt+Be^−βt (3) F=100·1−e^−t^β/α (4) F=kH·t^0.5 (5) where F is the percentage of drug released at time t (h), k 0 is the zero-order release constant (h^−1), k 1 is the first-order release constant (h^−1), A and B represent the fractions of drug distributed in different phases, and α and β (h^−1) are the specific kinetic rate constants. k H represents the Higuchi release constant.
The drug release mechanism was further evaluated by fitting the data to the Peppas-Sahlin (Equation 6) and Korsmeyer-Peppas (Equation 7) models: F=k1· t^0.5+k2 ·t (6) F=kKP·t^n (7) where k 1 is the constant (h^−1) denoting the relative contribution of t ^0.5 dependent drug diffusion to drug release, k 2 is the constant (h^−1) denoting the relative contribution of t-dependent polymer relaxation to drug release, k KP is the kinetic constant of the Korsmeyer-Peppas model, and n is the diffusion exponent that indicates the drug transport mechanism.
The release profiles were plotted and fitted using different in vitro release models. The results of the in vitro drug release study were evaluated based on dissolution efficiency and independent/dependent kinetic models. Model selection was performed considering the highest correlation coefficient (R ^2) and the Akaike Information Criterion (AIC) ([Vieira et al., 2016]).

[2] = Stability of CUR in spiked S1 flies (whole-body fly homogenate supernatant); assay type: in vitro ADME, D. melanogaster
Description: (§1) This homogenate was prepared by weighing 0.02 g of whole flies, followed by adding 600 µL of acetonitrile and homogenizing with an Ultra-Turrax (T10, GmbH, Germany) for 30 s at 28,800 rpm. The mixture was centrifuged at 14,000 rpm for 10 min at 4 °C to obtain the whole-body fly homogenate supernatant (S1). Subsequently, 90 µL of S1 was spiked with 10 µL of each calibration standard and 10 µL of the IS. Deproteinization was achieved by adding 1,000 µL of acetonitrile and 10 µL of 0.2% HCl. The mixtures were vortexed for 5 min, then centrifuged at 14,000 rpm for 10 min at 4 °C. The supernatant was separated, evaporated to dryness using a centrifugal vacuum concentrator at 45 °C for 60 min, and the residue reconstituted in 100 µL of mobile phase.
(§2) Stability tests were performed under identical conditions for both matrices: room temperature for 6 h (22 °C ± 3 °C), in the autosampler for up to 24 h (22 °C ± 3 °C), after 60 days in a freezer (−80 °C ± 2 °C), and across three freeze-thaw cycles, with each thawing period at room temperature for approximately 2 h and refreezing for 12 h at −20 °C. For each species, three replicates at concentrations of 3 and 150 ng/mL were tested.
(§3) Samples were deemed stable if the results fell within the acceptable limits of accuracy (±15% of nominal concentration) and precision (±15% CV). For the LLOQ, the CV was not to exceed 20% ([FDA, 2018]; [ICH, 2019]).

[3] = Stability of CUR in spiked rat plasma; assay type: in vitro ADME; settings: Plasma rats
Description: The rat plasma extraction was processed similarly to that of the flies, with 10 µL of each calibration standard sample mixed with 90 µL of blank rat plasma and 10 µL of the IS, followed by deproteinization with acetonitrile.
as §2, §3

[4] = Fly whole-body CUR quantification after 10-day dietary exposure, healthy flies; assay type: in vivo, D. melanogaster; settings: both sexes, Drosophila melanogaster, whole-body homogenate, oral, 110 ng/mL in food medium for 10 days
Description: as §1
Adult healthy flies (1–3 days old) of both sexes were used, with each group consisting of 25 males and 25 females (n = 6 replicates/50 flies each). […] The medium was replaced every 3 days. The dosing and study design were based on our previous study ([Fernandes et al., 2023]).

[5] = Fly whole-body CUR quantification, lipopolysaccharide-induced inflammation; assay type: in vivo, D. melanogaster; settings: LPS 250 μg/mL in food medium + 37 ng/mL for 10 days
Description: as §1

[6] = Pharmacokinetic study in rodents (non-compartmental analysis); assay type: in vivo, Wistar rats
Description: As described in our previous study, the NC-CUR was prepared via the interfacial deposition method of preformed polymers, ensuring the same final concentration ([Santos et al., 2021]). […] For the oral administration groups, blood sampling began 0.25 h post-gavage (Figure 1B). […] Pharmacokinetic parameters were calculated using non-compartmental analysis with PKanalix 2023R1 software (Lixoft, France). Plasma concentration-time profiles for each experimental group were analyzed individually.

[7] = ref Nakama et al., 2020; cited from earlier work
[8] = design: method as in Yang et al., 2007; settings: rats; 500 mg kg; ref Yang et al., 2007; cited from earlier work
[9] = design: method as in Wang et al., 2018; settings: mice; intravenous administration of 20 mg kg; ref Wang et al., 2018; cited from earlier work
[10] = system: healthy flies; design: method as in Fernandes et al., 2023; settings: ref Fernandes et al., 2023; cited from earlier work
[11] = nominal 3 ng/mL, 6 h (bench-top)
[12] = nominal 3 ng/mL, 24 h 6 h (bench-top)
[13] = nominal 3 ng/mL, Freeze-thaw cycles
[14] = nominal 150 ng/mL, 6 h (bench-top)
[15] = nominal 150 ng/mL, 24 h (autosampler)
[16] = nominal 150 ng/mL, 60 d (−80 °C)
[17] = nominal 150 ng/mL, Freeze-thaw cycles
[18] = male, Wistar, rat, plasma, iv, 2 mg/kg, Intravenous 2 mg/kg
[19] = male, Wistar, rat, plasma, Intravenous 2 mg/kg
[20] = male, Wistar, rat, plasma, Oral 6 mg/kg

With `COc1cc(/C=C/C(=O)CC(=O)/C=C/c2ccc(O)c(OC)c2)ccc1O` [CUR, Curcumin] the B ([1]; Biexponencial model) was 11.93 ± 2.50, the α ([1]; Biexponencial model) was 0.15 ± 0.02 h⁻¹ and the β ([1]; Biexponencial model) was 0.17 ± 0.01 h⁻¹. It also gave an A ([1]; Biexponencial model (chosen model), PBS pH 7.4) of 78.99 ± 2.50, a kH ([1]; Higuchi model) of 18.05 ± 0.07 h⁻¹ and a k ([1]; Monoexponencial model, PBS pH 7.4) of 0.14 ± 0.00 h⁻¹. The α ([1]; Weibull model) was 4.73 ± 0.06 h⁻¹, the β ([1]; Weibull model) was 0.82 ± 0.01 h⁻¹ and the “k 0” value ([1]; Zero order model, PBS pH 7.4) was 2.57 ± 0.01 h⁻¹. For the same compound, the drug released ([1]; at 6 h) was 56.09%, the drug released ([1]; at 12 h) was 97.69% and ~100% and the Accuracy [2, 11] was 84.45%. For the same compound, the “Mean ± SD” value [2, 11] was 2.74 ± 0.39 ng/mL, the Accuracy [2, 12] was 114.19% and the “Mean ± SD” value [2, 12] was 3.23 ± 0.24 ng/mL. For the same compound, the Accuracy ([2]; nominal 3 ng/mL, 60 d (−80 °C)) was 103.03%, the “Mean ± SD” value ([2]; nominal 3 ng/mL, 60 d (−80 °C)) was 3.09 ± 0.26 ng/mL and the Accuracy [2, 13] was 106.81%. The “Mean ± SD” value [2, 13] was 3.20 ± 0.27 ng/mL, the Accuracy [2, 14] was 94.59% and the “Mean ± SD” value [2, 14] was 144.26 ± 4.68 ng/mL. For the same compound, the Accuracy [2, 15] was 89.72%, the “Mean ± SD” value [2, 15] was 142.32 ± 4.62 ng/mL and the Accuracy [2, 16] was 98.39%. The “Mean ± SD” value [2, 16] was 147.59 ± 16.88 ng/mL, the Accuracy [2, 17] was 95.99% and the “Mean ± SD” value [2, 17] was 143.99 ± 13.47 ng/mL. The “Mean ± SD” value [3, 11] was 2.58 ± 0.04 ng/mL, the Accuracy [3, 12] was 98.08% and the “Mean ± SD” value [3, 12] was 2.94 ± 0.19 ng/mL. For the same compound, the Accuracy ([3]; nominal 3 ng/mL, 60 d (−80 °C)) was 86.28%, the “Mean ± SD” value ([3]; nominal 3 ng/mL, 60 d (−80 °C)) was 2.58 ± 0.05 ng/mL and the Accuracy [3, 13] was 86.23%. The “Mean ± SD” value [3, 13] was 2.58 ± 0.04 ng/mL, the Accuracy [3, 14] was 99.1% and the “Mean ± SD” value [3, 14] was 148.64 ± 1.35 ng/mL. The Accuracy [3, 15] was 99.84%, the “Mean ± SD” value [3, 15] was 149.75 ± 0.92 ng/mL and the Accuracy [3, 16] was 98.84%. The “Mean ± SD” value [3, 16] was 148.26 ± 0.17 ng/mL, the Accuracy [3, 17] was 99.1% and the “Mean ± SD” value [3, 17] was 148.64 ± 1.35 ng/mL. For the same compound, the concentration at 10 days [4] was about 0.075 µg/mL, the “CUR concentration in whole-body homogenates” value [5] was “markedly reduced CUR levels” and the kel ([6]; Intravenous 2 mg/kg) was 0.75 h−¹. The CL ([6]; Intravenous 2 mg/kg, 2 mg/kg) was 7.71 L/h, the t1/2 ([6]; Intravenous 2 mg/kg, 2 mg/kg) was 1.17 h and the “AUC0-∞” value ([6]; Intravenous 2 mg/kg, male Wistar rats, n = 9, 2 mg/kg) was 0.10041 µg·h/mL. For the same compound, the kel ([6]; Oral 6 mg/kg) was 0.54 h−¹, the clearance [6, 18] was 125 mL/min and the half-life [6, 18] was 1.77 ± 0.45 h. It also gave an AUC(0-inf) ([6]; male, Wistar, rat, plasma, iv, 2 mg/kg, Intravenous 2 mg/kg, male Wistar rats, n = 9) of 0.1 ± 0.0244 µg·h/mL, a half-life ([6]; male, Wistar, rat, plasma, po, 6 mg/kg, Oral 6 mg/kg) of 1.7 h and an AUC(0-inf) ([6]; male, Wistar, rat, plasma, po, 6 mg/kg, Oral 6 mg/kg, male Wistar rats, n = 12) of 0.0255 µg·h/mL. For the same compound, the Cmax [6, 19] was 0.231 µg/mL, the MRT [6, 19] was 0.79 h and the Vd [6, 19] was 12.8 L. It also gave a Cmax [6, 20] of 0.00804 µg/mL, an MRT [6, 20] of 3 h and a Tmax [6, 20] of 1.31 h. The bioavailability ([6]; male, Wistar, rat, plasma, Oral 6 mg/kg vs intravenous 2 mg/kg, read-out: Fabs (absolute bioavailability)) was 8.48%, the “Log P” value [7] was about 3.2 and the “oral bioavailability (administered dose absorbed)” value [8] was “about 1%”. For the same compound, the half-life [9] was “approximately 32.4 min” and the “concentrations producing increased survival and enhanced antioxidant defenses” value [10] was “above 300 μM”.
